Where a name gives a salt, the structure may show the parent alone. Read-outs that look alike come from different tables or passages of the source.
How the values were obtained:
[1] = molecular target: T1, muskarinischen Rezeptoren (Ventrikel) (Rattus norvegicus, UniProt P10980); assay: Receptor binding test in vivo (3H-NMS), heart ventricle; set-up: species or system Ratten; settings: iv
T1 construct: wurden die Tiere getötet, das Herz, die Bronchien und die Tränendrüsen entnommen; from tissue; host or cells: rat heart (atrium, ventricle), in vivo labelling with 3H-NMS
T1 sequence (P10980 1-466): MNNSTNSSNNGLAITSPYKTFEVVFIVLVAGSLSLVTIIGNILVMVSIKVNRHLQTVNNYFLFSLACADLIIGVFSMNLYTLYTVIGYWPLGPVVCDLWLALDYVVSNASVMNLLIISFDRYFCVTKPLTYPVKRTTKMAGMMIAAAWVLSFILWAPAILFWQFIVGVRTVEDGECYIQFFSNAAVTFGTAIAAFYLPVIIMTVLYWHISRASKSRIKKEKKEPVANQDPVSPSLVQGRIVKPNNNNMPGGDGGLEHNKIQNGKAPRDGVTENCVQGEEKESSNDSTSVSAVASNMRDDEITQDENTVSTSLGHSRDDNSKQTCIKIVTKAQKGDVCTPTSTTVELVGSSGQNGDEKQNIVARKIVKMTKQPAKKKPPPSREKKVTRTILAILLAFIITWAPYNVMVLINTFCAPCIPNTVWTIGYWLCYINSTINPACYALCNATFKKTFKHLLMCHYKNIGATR
Experimental: (§1) Für diese Experimente wurden weibliche Ratten mit einem Körpergewicht von ca. 200 g verwendet. Vor Versuchsbeginn wurden die Tiere mit einer Dosis von 1,25 g/kg Urethan narkotisiert. Die Tiere erhielten jeweils die vorgesehene Dosis der Prüfsubstanz durch i.v. Injektion. Nach Ablauf von 15 Minuten wurde auf gleiche Weise 113 ng/kg ^3H-N-Methylscopolamin (^3H-NMS) gegeben. Nach weiteren 15 Minuten wurden die Tiere getötet, das Herz, die Bronchien und die Tränendrüsen entnommen. Diese Organe wurden in Soluene R aufgelöst und die Radioaktivität bestimmt. Diese Messwerte wurden als Totalbindung angenommen. […] Aus diesen Versuchen wurden für die einzelnen Organe IDso-Werte ermittelt. Die IDso-Werte sind Dosen der Prüfsubstanzen, die 50% der spezifischen Bindung von ^3H-NMS an die muskarinischen Rezeptoren der jeweiligen Organe hemmten.

[2] = system: Acetylcholinwirkung auf Blase; assay: Inhibition of the acetylcholine effect on bladder; format: in vivo, Meerschweinchen; settings: for ED50: Cavia porcellus, 5 min, anaesthetised guinea pig, acetylcholine 5 min after test substance, bladder contraction, read-out: -log ED50 Blase (converted)
Description: (§2) Dabei wurde die Herzfrequenz durch extrakorporale Ableitung des EKG, der Ausatemwiderstand nach Konzett-Rößler und die Kontraktion […] an den untersuchten Organen wurden Dosis-Wirkungskurven aufgenommen und daraus -log EDso-Werte bestimmt. Ergebnisse siehe Tabelle V.

Speichelsekretion = assay: Inhibition of pilocarpine-induced salivation in the rat; format: in vivo, Ratte; settings: for ED50: Rattus norvegicus, iv, dose reducing saliva volume by 50%, pilocarpine 2 mg/kg s.c., read-out: Speichelsekretionshemmung (Ratte) ED50
Experimental: Nach Lavy und Mulder (Arch. int. Pharmacodyn. 178, 437-445, (1969)) erhielten mit 1,2 g/kg Urethan narkotisierte männliche THOM-Ratten steigende Dosen der Substanz i.v.. Die Speichelsekretion wurde durch s.c. Gabe von 2 mg/kg Pilocarpin ausgelöst. Der Speichel wurde mit Fließpapier aufgesaugt, die von ihm eingenommene Fläche alle 5 Minuten planimetrisch bestimmt. Die Dosis der Substanz, die das Speichelvolumen um 50% verminderte, wurde graphisch ermittelt. Ergebnisse siehe Tabelle 11.

M1 = M1 activity in the rat: inhibition of blood pressure rise caused by McN-A-343; format: in vivo, Ratte
Experimental: (§3) Die angewandte Methode wurde von Hammer und Giachetti (Life Sciences 31, 2991-2998 (1982)) beschrieben. 5 Minuten nach intravenöser Injektion steigender Dosen der Substanz wurden entweder der rechte Vagus elektrisch stimuliert (Frequenz: 25 Hz; Pulsbreite: 2ms; Reizdauer: 30s; Voltzahl: supramaximal) oder 0,3 mg/kg McN-A-343 in männliche THOM-Ratten intravenös injiziert. Die durch Vagusstimulation hervorgerufene Bradykardie und der durch McN-A-343 verursachte Blutdruckanstieg wurden bestimmt. Die Dosis der Substanzen, die entweder die vagale Bradykardie (M2) oder den Blutdruckanstieg (Mi) um 50% verminderte, wurde graphisch ermittelt. Ergebnisse siehe Tabelle II.

[3] = system: Acetylcholinwirkung auf Herzfrequenz; assay: Inhibition of the acetylcholine effect on heart rate; format: in vivo, Meerschweinchen; settings: for ED50: Cavia porcellus, 5 min, anaesthetised guinea pig, acetylcholine 5 min after test substance, heart rate
Description: as §2

[4] = molecular target: T2, muskarinischen Rezeptoren (Atrium) (Rattus norvegicus, UniProt P10980); assay: Receptor binding test in vivo (3H-NMS), heart atrium; set-up: species or system Ratten
T2 construct: wurden die Tiere getötet, das Herz, die Bronchien und die Tränendrüsen entnommen; from tissue; host or cells: rat heart (atrium, ventricle), in vivo labelling with 3H-NMS
T2 sequence (P10980 1-466): T1 sequence (P10980 1-466)
Description: as §1, with “Nach Ablauf von 15 Minuten wurde auf gleiche Weise 113 ng/kg ^3H-N-Methylscopolamin (^3H-NMS) gegeben.” left out

[5] = molecular target: T3, muskarinischen Rezeptoren (Tränendrüsen) (Rattus norvegicus, UniProt P08483); settings: in vivo, iv
[6] = system: Acetylcholinwirkung auf Bronchien; assay: Inhibition of the acetylcholine effect on bronchi; format: in vivo, Meerschweinchen; settings: for ED50: Cavia porcellus, 5 min, anaesthetised guinea pig, acetylcholine 5 min after test substance, expiratory resistance, read-out: -log ED50 Bronchien (converted)
Description: as §2

[7] = molecular target: T4, muscarinischen Rezeptoren (Herz) (Rattus norvegicus, UniProt P10980); assay: biochemical; format: binding, Ratte; settings: whole heart homogenate 1:400, 0,3 nmolar 3H-NMS, 30°C, 45 min; read-out: Rezeptor-Bindungs-Tests -log IC50 Herz (converted)
T4 construct: Das Gesamtherz wurde mit einer Schere zerkleinert; Alle Organe wurden abschließend in einem Potter homogenisiert; from tissue; host or cells: rat whole heart homogenate
T4 sequence (P10980 1-466): T1 sequence (P10980 1-466)
Description: Als Organspender dienten männliche Sprague-Dawley-Ratten mit 180-220 g Körpergewicht. Nach Entnahme von Herz und Submandibularis wurden alle weiteren Schritte in eiskaltem Hepes-HCI-Puffer (pH 7,4; 100 m molar NaCI, 10 m molar MgCI2) vorgenommen. Das Gesamtherz wurde mit einer Schere zerkleinert. Alle Organe wurden abschließend in einem Potter homogenisiert.
Für den Bindungstest wurden die Organhomogenate in folgender Weise verdünnt: • Gesamtherz 1:400 • Submandibularis 1:400
Die Inkubation der Organhomogenate erfolgte bei einer bestimmten Konzentration des Radioliganden und einer Konzentrationsreihe der nichtradioaktiven Testsubstanzen im Eppendorf-Zentrifugenröhrchen bei 30°C. Die Inkubationsdauer betrug 45 Minuten. Als Radioligand wurde 0,3 nmolar ^3H-N-Methylscopolamin (^3H-NMS) verwendet. Die Inkubation wurde durch Zugabe von eiskaltem Puffer mit nachfolgender Vakuumfiltration beendet. Die Filter wurden mit kaltem Puffer gespült und ihre Radioaktivität bestimmt. Sie repräsentiert die Summe von spezifischer und unspezifischer Bindung von ^3H-NMS. Der Anteil der unspezifischen Bindung wurde definiert als jene Radioaktivität die in Anwesenheit von 1 u. molar Quinciidinylbenzilat gebunden wurde. Es wurden immer Vierfachbestimmungen vorgenommen. Die ICso-Werte der nicht markierten Testsubstanzen wurden graphisch bestimmt. Sie repräsentieren jene Konzentration der Testsubstanz, bei welcher die spezifische Bindung von ^3H-NMS an die muscarinischen Rezeptoren in den verschiedenen Organen um 50 % gehemmt wurde.

M2 = M2 activity in the rat: inhibition of bradycardia induced by vagus stimulation; format: in vivo, Ratte; settings: i.v.; dose reducing vagal bradycardia by 50%; 5 min after injection
Experimental: as §3

Solubility in water = format: physicochemical; settings: for Löslichkeit in Wasser: result in words; for solubility: water, read-out: Löslichkeit in Wasser
[8] = molecular target: T3, muskarinischen Rezeptoren (Tränendrüsen); assay: in vivo; settings: iv, 0.5 h, read-out: ID50 Tränendrüsen
[9] = ratio of ED50 salivation inhibition to ED50 M2 activity, rat
[10] = i.v., dose reducing McN-A-343 (0,3 mg/kg) blood pressure rise by 50%, 5 min

T3 sequence (P08483 whole entry): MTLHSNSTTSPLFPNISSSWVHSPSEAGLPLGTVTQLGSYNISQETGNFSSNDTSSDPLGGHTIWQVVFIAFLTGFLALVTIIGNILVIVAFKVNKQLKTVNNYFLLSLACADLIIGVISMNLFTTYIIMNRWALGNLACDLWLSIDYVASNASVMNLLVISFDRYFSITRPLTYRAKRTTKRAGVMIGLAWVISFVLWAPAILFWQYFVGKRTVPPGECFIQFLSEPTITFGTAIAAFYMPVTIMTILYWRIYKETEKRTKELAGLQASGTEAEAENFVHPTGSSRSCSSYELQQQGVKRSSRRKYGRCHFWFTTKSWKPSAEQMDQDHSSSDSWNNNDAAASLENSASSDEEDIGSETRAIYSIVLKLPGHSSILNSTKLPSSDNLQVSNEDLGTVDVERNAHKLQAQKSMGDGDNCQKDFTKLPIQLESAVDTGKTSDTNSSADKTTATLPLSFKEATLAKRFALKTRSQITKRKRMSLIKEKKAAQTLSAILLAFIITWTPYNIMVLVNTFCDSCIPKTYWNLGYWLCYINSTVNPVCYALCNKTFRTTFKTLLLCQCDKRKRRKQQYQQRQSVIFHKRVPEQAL

Row | Structure (SMILES) | ED50 [2] [µmol/kg] | ED50 (Speichelsekretion) [mg/kg] | M1-Aktivität (Ratte) ED50 (M1; [10]) | ED50 [3] [µmol/kg] | IC50 [7] [nM] | M2-Aktivität (Ratte) ED50 (M2) | ED50 [6] [µmol/kg] | also measured
1 | CN1C2CCC1CC(OC(=O)C(CO)c1ccccc1)C2 (racemic) [Z, Atropin, reference compound] | – | – | – | – | – | – | – | ID50 Herz Ventrikel ([1]; in vivo): 0,03 mg/kg; -log ED50 Blase ([2]; in vivo): 7,03 Molkg^-1; Verhältnis Speichelsekretionshemmung zu M2-Aktivität (Speichelsekretion; in vivo): 2,2; M1-Aktivität (Ratte) ED50 (M1; in vivo): 16 µg/kg; -log ED50 Herz ([3]; in vivo): 7,70 Molkg^-1; Verhältnis der ID50 Tränendrüse zu ID50 des Atrium ([4]; in vivo): 1,5; ID50 Herz Atrium ([4]; in vivo, iv): 0,08 mg/kg; ID50 Tränendrüsen [5]: 0,2 mg/kg; -log ED50 Bronchien ([6]; in vivo): 7,96 Molkg^-1
2 | O=C1Nc2cccnc2N(C(=O)N2CCCC(CCCN3CCCCC3)C2)c2ccccc21 (stereo not drawn) [A, 5,11-Dihydro-11-[[3-[3-(1-piperidinyl)propyl]-1-piperidinyl]carbonyl]-6H-pyrido[2,3-b][1,4]-benzodiazepin-6-on] | 1.35 | 0.035 | 49 µg/kg | 0.0871 | 2 | 6,9 µg/kg | 0.117 | Verhältnis Speichelsekretionshemmung zu M2-Aktivität (Speichelsekretion; [9]): 5; ED50 ([4]; rat, iv, 0.5 h; read-out: ID50 Herz Atrium): 0.01 mg/kg; Löslichkeit in Wasser (Solubility in water; methanesulfonate salt): leicht löslich; solubility (Solubility in water; hydrochloride salt): ~2000 µg/mL; solubility (Solubility in water; salt with N-Cyclohexylsulfamidsäure): ~10000 µg/mL; ED50 [8]: 0.2 mg/kg
3 | Cl.O=C1Nc2cccnc2N(C(=O)N2CCCC(CCCN3CCCC3)C2)c2ccccc21 (stereo not drawn) [B, 5,11-Dihydro-11-[[3-[3-(1-pyrrolidinyl)propyl]-1-piperidinyl]carbonyl]-6H-pyrido[2,3-b][1,4]-benzodiazepin-6-on-hydrochlorid] | 0.692 | – | – | 0.0661 | 10 | – | 0.0871 | solubility (Solubility in water; hydrochloride salt): ~3000 µg/mL
4 | CCN(CC)CCCCC1CCCCN1C(=O)N1c2ccccc2C(=O)Nc2cccnc21 (stereo not drawn) [Beispiel 4, 11-[[2-[4-(Diethyiamino)butyl]-1-piperidinyl]carbonyl]-5,11-dihydro-6H-pyrido[2,3-b][1,4]benzodiazepin-6-on] | – | – | – | – | – | – | – | Löslichkeit in Wasser (Solubility in water; dihydrochloride): wasserlösliche
5 | CS(=O)(=O)O.O=C1Nc2cccnc2N(C(=O)N2CCCC(CCN3CCCCC3)C2)c2ccccc21 (stereo not drawn) [C, 5,11-Dihydro-11-[[3-[2-(1-piperidinyl)ethyl]-1-piperidinyl]carbonyl]-6H-pyrido[2,3-b][1,4]-benzodiazepin-6-on-methansulfonat] | 0.355 | 0.058 | 39 µg/kg | 0.0427 | 3.02 | 7,6 µg/kg | 0.0417 | Verhältnis Speichelsekretionshemmung zu M2-Aktivität (Speichelsekretion; [9]): 7,6
6 | O=C1Nc2cccnc2N(C(=O)N2CCCC(CCN3CCCC3)C2)c2ccccc21 (stereo not drawn) [D, 5,11-Dihydro-11-[[3-(2-(1-pyrrolidinyl)ethyl]-1-piperidinyl]carbonyl]-6H-pyrido[2,3-b][1,4]-benzodiazepin-6-on-hydrochlorid] | 0.708 | – | – | 0.0479 | 6.03 | – | 0.0324 | –
7 | CN(CCC1CCCN(C(=O)N2c3ccccc3C(=O)Nc3cccnc32)C1)C1CCCC1 (stereo not drawn) [E, 11-[[3-[2-[(Cyclopentyl)methylamino]ethyl]-1-piperidinyl]carbonyl]-5,11-dihydro-6H-pyrido[2,3-b]-[1,4]-benzodiazepin-6-on-hydrochlorid] | 0.891 | – | – | 0.0813 | 3.02 | – | 0.0977 | –
8 | O=C1Nc2cccnc2N(C(=O)N2CCCC(CCN3CCCCCC3)C2)c2ccccc21 (stereo not drawn) [F, 5,11-Dihydro-11-[[3-[2-(hexahydro-1H-1-azepinyl)ethyl]-1-piperidinyl]carbonyl]-6H-pyrido[23-b]-[1,4]benzodiazepin-6-on-hydrochlorid] | 0.38 | – | – | 0.0162 | 3.02 | – | 0.0398 | –
9 | O=C1Nc2ccccc2N(C(=O)N2CCCC(CCN3CCCCC3)C2)c2ncccc21 (stereo not drawn) [G, 6,11-Dihydro-11-[[3-[2-(1-piperidinyl)ethyl]-1-piperidinyl]carbonyl]-5H-pyrido[23-b][1,5]-benzodiazepin-5-on] | 0.302 | 0.00683 | 7,16 µg/kg | 0.0148 | 3.98 | 8,13 µg/kg | 0.0263 | Verhältnis Speichelsekretionshemmung zu M2-Aktivität (Speichelsekretion; [9]): 20,00
10 | CCN(CC)CC1CCCCN1CC(=O)N1c2ccccc2C(=O)Nc2cccnc21 (stereo not drawn) [X, 11-[[2-[(Diethylamino)methyl]-1-piperidinyl]acetyl]-5,11-dihydro-6H-pyrido[2,3-b][1,4]-benzodiazepin-6-on, reference compound] | 18.6 | – | 988 µg/kg | 1.45 | 151 | 160 µg/kg | 2.63 | ED50 ([1]; rat, 0.5 h, read-out: ID50 Herz Ventrikel): 0.6 mg/kg; ED50 ([4]; rat, iv, 0.5 h, read-out: ID50 Herz Atrium): 1 mg/kg; ED50 [8]: > 30 mg/kg
11 | CN1CCN(CC(=O)N2c3ccccc3C(=O)Nc3cccnc32)CC1 [Y, 5,11-Dihydro-11-[(4-methyl-1-piperazinyl)acetyl]-6H-pyrido[2.3-b][1,4]benzodiazepin-6-on, reference compound] | 4.37 | 0.084 | – | 1.41 | – | – | 0.269 | –

From patent EP0306698A1, “Condensed diazepinones, processes for their preparation, and medicaments containing these compounds” (Dr. Karl Thomae GmbH, priority 1987, dated 1989)
